Patent US8084479B2, “Thiazole compounds and methods of use” (Amgen Inc., priority 2006, dated 2011)

biological target: PKBα (Homo sapiens, UniProt P31749); assay: PKB kinase assay (P33-labeled ATP, peptide substrate, filter plate); assay type: biochemical; conditions: PKBα enzyme (full length or kinase domain with pleckstrin domain deleted)
Excerpt: The kinase assay for evaluating PKB activity comprises active PKB enzymes, a PKB specific substrate, and P^33-labeled ATP. […] The phosphorylated substrate was captured by a phosphocellulose membrane filter plate (MLLIPORE) and measured by a Wallac Microbeta liquid scintillation counter (Perkin Elmer).

Chain of PKBα (P31749 118-480 limits assumed): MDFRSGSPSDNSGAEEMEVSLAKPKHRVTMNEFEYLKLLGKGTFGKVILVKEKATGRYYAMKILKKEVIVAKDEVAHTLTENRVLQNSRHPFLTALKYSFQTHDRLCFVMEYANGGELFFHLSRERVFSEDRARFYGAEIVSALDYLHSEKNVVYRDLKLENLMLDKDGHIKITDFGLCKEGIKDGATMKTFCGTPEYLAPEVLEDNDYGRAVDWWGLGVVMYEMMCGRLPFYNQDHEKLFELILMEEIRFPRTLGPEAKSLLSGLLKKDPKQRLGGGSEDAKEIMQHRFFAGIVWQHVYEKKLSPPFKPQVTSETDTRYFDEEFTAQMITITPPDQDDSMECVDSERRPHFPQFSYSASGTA

Row | SMILES | IC50 [nM]
1 | N[C@H](CNc1ncc(-c2cc3oc(=O)[nH]c3cc2F)s1)Cc1ccc(C(F)(F)F)nc1 [Example 219, 6-(2-((S)-2-amino-3-(6-(trifluoromethyl)pyridin-3-yl)propylamino)thiazol-5-yl)-5-fluorobenzo[d]oxazol-2(3H)-one] | 50 to 1000
2 | N[C@H](CNc1ncc(-c2cc(F)c3c(c2)CC(=O)N3)s1)Cc1ccc(C(F)(F)F)nc1 [Example 221, 5-(2-((S)-2-amino-3-(6-(trifluoromethyl)pyridin-3-yl)propylamino)thiazol-5-yl)-7-fluoroindolin-2-one] | < 50
3 | NC(CNc1ncc(-c2ccc3[nH]c(=O)oc3c2)s1)Cc1ccc(C(F)(F)F)c(F)c1 (stereo not drawn) [Example 181, 6-(2-(2-amino-3-(3-fluoro-4-(trifluoromethyl)phenyl)propylamino)thiazol-5-yl)benzo[d]oxazol-2(3H)-one] | < 50
4 | N[C@H](CNc1ncc(-c2ccc3cnccc3c2)s1)Cc1ccc2ccccc2c1 [Example 202, N—((S)-2-amino-3-(naphthalen-2-yl)propyl)-5-(isoquinolin-6-yl)thiazol-2-amine] | < 50
5 | N[C@H](CNc1ncc(-c2ccc3[nH]c(=O)oc3c2)s1)Cc1cc(F)cc(F)c1 [Example 164, 6-(2-((S)-2-amino-3-(3,5-difluorophenyl)propylamino)thiazol-5-yl)benzo[d]oxazol-2(3H)one] | 50 to 1000
6 | N[C@H](CNc1ncc(-c2ccc3c(c2)CC(=O)N3)s1)Cc1ccc(Cl)cc1Cl [Example 113, 5-(2-((S)-2-Amino-3-(2,4-dichlorophenyl)propylamino)thiazol-5-yl)indolin-2-one] | 50 to 1000
7 | N[C@H](CNc1ncc(-c2cc3c(cc2F)NC(=O)C3)s1)Cc1ccc(C(F)(F)F)nc1 [Example 215, 5-(2-((S)-2-amino-3-(6-(trifluoromethyl)pyridin-3-yl)propylamino)thiazol-5-yl)-6-fluoroindolin-2-one] | 50 to 1000
8 | N[C@H](CNc1ncc(-c2ccc3cnccc3c2)s1)Cc1ccc(C(F)(F)F)c(F)c1 [Example 83, N—((S)-2-Amino-3-(3-fluoro-4-(trifluoromethyl)phenyl)propyl)-5-(isoquinolin-6-yl)thiazol-2-amine] | < 50
9 | Cn1c(=O)[nH]c2ccc(-c3cnc(NC[C@@H](N)Cc4ccc(C(F)(F)F)c(F)c4)s3)cc21 [Example 184, 6-(2-((S)-2-amino-3-(3-fluoro-4-(trifluoromethyl)phenyl)propylamino)thiazol-5-yl)-1-methyl-1H-benzo[d]imidazol-2(3H)-one] | < 50
10 | N[C@H](CNc1ncc(-c2ccc3[nH]ncc3c2)s1)Cc1ccc(C(F)(F)F)c(F)c1 [Example 186, N—((S)-2-amino-3-(3-fluoro-4-(trifluoromethyl)phenyl)propyl)-5-(1H-indazol-5-yl)thiazol-2-amine] | < 50
11 | N[C@H](CNc1ncc(-c2ccc3[nH]c(=O)oc3c2)s1)Cc1ccc(C(F)(F)F)c(O)c1 [Example 210] | < 50
12 | C[C@@H](c1ccc(C(F)(F)F)cc1)[C@H](N)CNc1ncc(-c2ccc3[nH]c(=O)oc3c2)s1 [Example 109, 6-(2-((2S,3S)-2-Amino-3-(4-(trifluoromethyl)phenyl)butylamino)-thiazol-5-yl)benzo[d]oxazol-2(3H)-one] | < 50
13 | COc1cc(C[C@H](N)CNc2ncc(-c3ccc4c(c3)CC(=O)N4)s2)cnc1C(F)(F)F [Example 174, 5-(2-((S)-2-amino-3-(5-methoxy-6-(trifluoromethyl)pyridin-3-yl)propylamino)thiazol-5-yl)indolin-2-one] | 50 to 1000
14 | Cn1c(=O)[nH]c2ccc(-c3cnc(NC[C@@H](N)Cc4ccc5ccccc5c4)s3)cc21 [Example 203, 6-(2-((S)-2-amino-3-(naphthalen-2-yl)propylamino)thiazol-5-yl)-1-methyl-1H-benzo[d]imidazol-2(3H)-one] | 50 to 1000
15 | N[C@H](CNc1ncc(-c2ccc3[nH]c(=O)oc3c2)s1)Cc1ccc(Cl)cc1 [Example 55, 6-(2-((S)-2-Amino-3-(4-chlorophenyl)propylamino)thiazol-5-yl)benzo[d]oxazol-2(3H)-one] | < 50
16 | N[C@H](CNc1ncc(-c2ccc3c(c2)CC(=O)N3)s1)Cc1ccc(OCCCO)cc1 [Example 95, 5-(2-((S)-2-Amino-3-(4-(3-hydroxypropoxy)phenyl)propylamino)-thiazol-5-yl)indolin-2-one] | 1000 to 10000
17 | N[C@H](CNc1ncc(-c2ccc3[nH]c(=O)oc3c2)s1)Cc1ccc(C(F)(F)F)c(F)c1 [Example 183, 6-(2-((S)-2-amino-3-(3-fluoro-4-(trifluoromethyl)phenyl)propylamino)thiazol-5-yl)benzo[d]oxazol-2(3H)-one] | < 50
18 | Cn1c(=O)[nH]c2ccc(-c3cnc(NCC(N)Cc4ccc(C(F)(F)F)c(F)c4F)s3)cc21 (stereo not drawn) [Example 191, 6-(2-(2-amino-3-(2,3-difluoro-4-(trifluoromethyl)phenyl)propylamino)thiazol-5-yl)-1-methyl-1H-benzo[d]imidazol-2(3H)-one] | 50 to 1000
19 | NC(=O)c1ccc(-c2cnc(NC[C@@H](N)Cc3ccc(C(F)(F)F)cc3)s2)cc1 [Example 49, (S)-4-(2-(2-amino-3-(4-(trifluoromethyl)phenyl)propylamino)thiazol-5-yl)benzamide] | 1000 to 10000

The remaining lines, values ahead:

Row | IC50 [nM] | SMILES
20 | 50 to 1000 | N[C@H](CNc1nc(-c2ccc(F)cc2)c(-c2ccc3cnccc3c2)s1)Cc1ccc(C(F)(F)F)cc1 [Example 102, N—((S)-2-Amino-3-(4-(trifluoromethyl)phenyl)propyl)-4-(4-fluorophenyl)-5-(isoquinolin-6-yl)thiazol-2-amine]
21 | < 50 | COCc1nc(NC[C@@H](N)Cc2ccc(C(F)(F)F)cc2)sc1-c1ccc2c(c1)CC(=O)N2 [Example 69, 5-(2-((S)-2-amino-3-(4-(trifluoromethyl)phenyl)propylamino)-4-(methoxymethyl)thiazol-5-yl)indolin-2-one]
22 | < 50 | N[C@H](CNc1nc(-c2ccccc2F)c(-c2ccc3cnccc3c2)s1)Cc1ccc(C(F)(F)F)cc1 [Example 105, N—((S)-2-Amino-3-(4-(trifluoromethyl)phenyl)propyl)-4-(2-fluorophenyl)-5-(isoquinolin-6-yl)thiazol-2-amine]
23 | 50 to 1000 | COC(=O)c1nc(NC[C@@H](N)Cc2ccc(C(F)(F)F)cc2)sc1-c1ccc2c(c1)CC(=O)N2 [Example 122, Methyl 2-((S)-2-amino-3-(4-(trifluoromethyl)phenyl)propylamino)-5-(2-oxoindolin-5-yl)thiazole-4-carboxylate]
24 | 50 to 1000 | CNCc1nc(NC[C@@H](N)Cc2ccc(C(F)(F)F)cc2)sc1-c1ccc2cnccc2c1 [Example 56, N—((S)-2-amino-3-(4-(trifluoromethyl)phenyl)propyl)-5-(isoquinolin-6-yl)-4-((methylamino)methyl)thiazol-2-amine]
25 | 50 to 1000 | N[C@H](CNc1nc(C(F)(F)F)c(-c2ccc3cnccc3c2)s1)Cc1ccc(Cl)cc1 [Example 168]
26 | < 50 | Nc1cc2cc(-c3cnc(NC[C@@H](N)Cc4ccc(C(F)(F)F)cc4)s3)ccc2cn1 [Example 75, 6-(2-((S)-2-Amino-3-(4-(trifluoromethyl)phenyl)propylamino)thiazol-5-yl)isoquinolin-3-amine]
27 | < 50 | N[C@H](CNc1nc(C2CCCO2)c(-c2ccc3cnccc3c2)s1)Cc1ccc(C(F)(F)F)cc1 (stereo partly drawn) [Example 198, N—((S)-2-Amino-3-(4-(trifluoromethyl)phenyl)propyl)-5-(isoquinolin-6-yl)-4-(tetrahydrofuran-2-yl)thiazol-2-amine]
28 | 50 to 1000 | Cc1nc(NC[C@@H](N)Cc2ccc(C(F)(F)F)cc2)sc1-c1nc2ccncc2s1 [Example 24, N—((S)-2-amino-3-(4-(trifluoromethyl)phenyl)propyl)-4-methyl-5-(thiazolo[5,4-c]pyridin-2-yl)thiazol-2-amine]
29 | 50 to 1000 | Nc1noc2ccc(-c3cnc(NC[C@@H](N)Cc4ccc(C(F)(F)F)cc4)s3)cc12 [Example 51, 5-(2-((S)-2-amino-3-(4-(trifluoromethyl)phenyl)propylamino)thiazol-5-yl)benzo[d]isoxazol-3-amine]
30 | 50 to 1000 | N[C@H](CNc1nc(-c2ccccc2)c(-c2ccc3cnccc3c2)s1)Cc1ccc(C(F)(F)F)cc1 [Example 9, N—((S)-2-amino-3-(4-(trifluoromethyl)phenyl)propyl)-5-(isoquinolin-6-yl)-4-phenylthiazol-2-amine]
31 | 50 to 1000 | CC(C)(O)C#Cc1nc(NC[C@@H](N)Cc2ccc(C(F)(F)F)cc2)sc1-c1ccc2cnccc2c1 [Example 79, 4-(2-((S)-2-Amino-3-(4-(trifluoromethyl)phenyl)propylamino)-5-(isoquinolin-6-yl)thiazole-4-yl)-2-methylbut-3-yn-2-ol]
32 | 50 to 1000 | N[C@@H](CNc1ncc(-c2ccc3c(c2)CC(=O)N3)s1)Cc1ccc(C(F)(F)F)cc1 [Example 137, 5-(2-((R)-2-Amino-3-(4-(trifluoromethyl)phenyl)propylamino)thiazol-5-1)indolin-2-one]
33 | < 50 | N[C@H](CNc1ncc(-c2ccc3cnccc3n2)s1)Cc1ccc(C(F)(F)F)cc1 [Example 68, N—((S)-2-amino-3-(4-(trifluoromethyl)phenyl)propyl)-5-(1,6-naphthyridin-2-yl)thiazol-2-amine]
34 | < 50 | CC(O)C#Cc1nc(NC[C@@H](N)Cc2ccc(C(F)(F)F)cc2)sc1-c1ccc2c(c1)CC(=O)N2 (stereo partly drawn) [Example 144, 5-(2-((S)-2-amino-3-(4-(trifluoromethyl)phenyl)propylamino)-4-(3-hydroxybut-1-ynyl)thiazol-5-yl)indolin-2-one]
35 | 50 to 1000 | COCc1nc(N(C[C@@H](N)Cc2ccc(Cl)cc2)C(C)=O)sc1-c1nc2ccncc2s1 [Example 25, N—((S)-2-amino-3-(4-chlorophenyl)propyl)-N-(4-(methoxymethyl)-5-(thiazolo[5,4-c]pyridin-2-yl)thiazol-2-yl)acetamide]
36 | 50 to 1000 | N[C@H](CNc1ncc(-c2ccc3c(O)nncc3c2)s1)Cc1ccc(C(F)(F)F)cc1 [Example 65, 6-(2-((S)-2-amino-3-(4-(trifluoromethyl)phenyl)propylamino)thiazol-5-yl)phthalazin-1-ol]
